Measurements from ChEMBL document CHEMBL1150291, “Discovery of potent, orally bioavailable, selective 5-HT1A/B/D receptor antagonists” (J Med Chem, 2008).

How the values were obtained:
[1] = Clearance in rat at 1 mg/kg, iv; assay type: ADME, organism-based; parameters: dose 1 mg/kg, route intravenous; conditions: in vivo
[2] = Half life in rat at 1 mg/kg, iv; assay type: ADME, organism-based; parameters: dose 1 mg/kg, route intravenous; conditions: in vivo
[3] = Volume of distribution at steady state in rat at 1 mg/kg, iv; assay type: ADME, organism-based; parameters: dose 1 mg/kg, route intravenous; conditions: in vivo, read-out: Vdss
[4] = Cmax in rat brain at 3 mg/kg, po; assay type: ADME, organism-based; parameters: dose 3 mg/kg, route oral
[5] = target: T1, 5-hydroxytryptamine receptor 1B (Homo sapiens, UniProt P28222); assay: Displacement of [3H]5HT from human recombinant 5HT1B receptor relative to control
[6] = target: T2, 5-hydroxytryptamine receptor 1D (Homo sapiens, UniProt P28221); assay: Displacement of [3H]5HT from human recombinant 5HT1D receptor relative to control
[7] = target: T3, 5-hydroxytryptamine receptor 1A (Homo sapiens, UniProt P08908)
T3 sequence (P08908 whole entry): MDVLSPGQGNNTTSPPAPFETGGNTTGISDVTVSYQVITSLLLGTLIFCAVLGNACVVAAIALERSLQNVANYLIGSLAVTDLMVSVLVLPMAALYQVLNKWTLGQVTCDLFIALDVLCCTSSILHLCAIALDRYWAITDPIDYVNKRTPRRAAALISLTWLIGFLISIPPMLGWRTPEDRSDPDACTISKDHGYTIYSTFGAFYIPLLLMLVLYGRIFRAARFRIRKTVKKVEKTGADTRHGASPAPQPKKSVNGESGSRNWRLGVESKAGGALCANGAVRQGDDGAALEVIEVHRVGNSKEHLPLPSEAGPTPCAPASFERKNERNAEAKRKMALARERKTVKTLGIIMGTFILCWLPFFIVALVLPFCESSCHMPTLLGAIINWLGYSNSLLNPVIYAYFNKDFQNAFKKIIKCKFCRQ

[8] = target: T1, 5-hydroxytryptamine receptor 1B
[9] = target: T2, 5-hydroxytryptamine receptor 1D
[10] = target: Sodium-dependent serotonin transporter (Rattus norvegicus, UniProt P31652)
Description: Inhibition of [3H]5HT uptake at SERT in rat cortical synaptosomes

[11] = Ratio of drug level in brain to blood in rat at 3 mg/kg, po; assay type: ADME, organism-based; parameters: dose 3 mg/kg, route oral; conditions: read-out: BBR
Rattus norvegicus = assay: Reversal of SKF-99101-induced increase in seizure threshold in orally dosed rat by electroshock threshold test; assay type: functional
[12] = target: 5-hydroxytryptamine receptor 1E (Homo sapiens, UniProt P28566); assay: Displacement of radioligand from human cloned 5HT1E receptor
[13] = target: T4, 5-hydroxytryptamine receptor 1F (Homo sapiens, UniProt P30939); assay: Displacement of radioligand from human cloned 5HT1F receptor
T4 sequence (P30939 whole entry): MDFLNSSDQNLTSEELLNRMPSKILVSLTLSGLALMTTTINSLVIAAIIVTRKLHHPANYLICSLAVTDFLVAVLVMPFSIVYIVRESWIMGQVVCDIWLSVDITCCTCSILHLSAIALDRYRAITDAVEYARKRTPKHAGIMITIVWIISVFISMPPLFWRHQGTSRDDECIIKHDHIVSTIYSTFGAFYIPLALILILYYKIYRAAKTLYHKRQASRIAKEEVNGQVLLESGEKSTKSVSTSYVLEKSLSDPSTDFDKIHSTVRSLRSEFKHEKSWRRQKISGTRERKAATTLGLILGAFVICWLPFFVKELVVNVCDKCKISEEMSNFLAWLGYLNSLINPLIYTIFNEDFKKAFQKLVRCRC

[14] = target: 5-hydroxytryptamine receptor 2A (Homo sapiens, UniProt P28223); assay: Displacement of radioligand from human cloned 5HT2A receptor
[15] = target: 5-hydroxytryptamine receptor 2B (Homo sapiens, UniProt P41595); assay: Displacement of radioligand from human cloned 5HT2B receptor
[16] = target: T5, 5-hydroxytryptamine receptor 2C (Homo sapiens, UniProt P28335); assay: Displacement of radioligand from human cloned 5HT2C receptor
T5 sequence (P28335 whole entry): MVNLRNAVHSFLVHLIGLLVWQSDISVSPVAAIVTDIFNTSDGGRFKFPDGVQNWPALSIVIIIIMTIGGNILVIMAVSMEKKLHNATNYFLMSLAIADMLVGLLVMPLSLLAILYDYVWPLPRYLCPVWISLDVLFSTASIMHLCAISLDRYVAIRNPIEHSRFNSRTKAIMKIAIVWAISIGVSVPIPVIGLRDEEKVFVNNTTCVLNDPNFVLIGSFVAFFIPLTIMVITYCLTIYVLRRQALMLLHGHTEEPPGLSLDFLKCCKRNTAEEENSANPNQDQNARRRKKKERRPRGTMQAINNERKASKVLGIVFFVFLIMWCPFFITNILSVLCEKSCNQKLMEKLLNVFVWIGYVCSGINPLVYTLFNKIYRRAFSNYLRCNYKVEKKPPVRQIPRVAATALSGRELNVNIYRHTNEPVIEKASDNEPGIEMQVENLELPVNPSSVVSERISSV

[17] = target: 5-hydroxytryptamine receptor 4 (Homo sapiens, UniProt Q13639); assay: Displacement of radioligand from human cloned 5HT4 receptor
[18] = target: 5-hydroxytryptamine receptor 6 (Homo sapiens, UniProt P50406); assay: Displacement of radioligand from human cloned 5HT6 receptor
[19] = target: 5-hydroxytryptamine receptor 7 (Homo sapiens, UniProt P34969); assay: Displacement of radioligand from human cloned 5HT7 receptor
[20] = target: Sodium-dependent serotonin transporter (Homo sapiens, UniProt P31645); assay: Displacement of radioligand from human cloned SERT
[21] = target: T6, Alpha-1B adrenergic receptor (Homo sapiens, UniProt P35368); assay: Displacement of radioligand from human cloned adrenergic Alpha-1B receptor
T6 sequence (P35368 whole entry): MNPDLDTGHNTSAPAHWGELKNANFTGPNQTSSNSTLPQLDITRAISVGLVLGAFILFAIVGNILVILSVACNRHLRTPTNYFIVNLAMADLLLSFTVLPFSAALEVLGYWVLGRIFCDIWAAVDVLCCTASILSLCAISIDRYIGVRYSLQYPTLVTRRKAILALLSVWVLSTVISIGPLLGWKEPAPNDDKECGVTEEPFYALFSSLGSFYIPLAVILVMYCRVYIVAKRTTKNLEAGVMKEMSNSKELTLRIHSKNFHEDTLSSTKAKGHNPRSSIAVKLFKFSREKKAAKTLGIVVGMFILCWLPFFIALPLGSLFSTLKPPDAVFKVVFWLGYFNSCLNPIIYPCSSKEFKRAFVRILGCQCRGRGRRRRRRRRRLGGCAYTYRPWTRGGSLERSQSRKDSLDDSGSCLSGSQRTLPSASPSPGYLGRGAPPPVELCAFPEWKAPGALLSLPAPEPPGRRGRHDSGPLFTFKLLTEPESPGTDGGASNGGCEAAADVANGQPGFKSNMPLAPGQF

[22] = target: Beta-2 adrenergic receptor (Homo sapiens, UniProt P07550); assay: Displacement of radioligand from human cloned adrenergic beta2 receptor
[23] = target: 5-hydroxytryptamine receptor 5A (Homo sapiens, UniProt P47898)
Description: Displacement of radioligand from human cloned 5HT5A receptor

D(2) dopamine receptor = D(2) dopamine receptor (Homo sapiens, UniProt P14416)
Description: Displacement of radioligand from human cloned dopamine D2 receptor

[24] = target: T3, 5-hydroxytryptamine receptor 1A; remark: listed apart in the source

T1 sequence (P28222 whole entry): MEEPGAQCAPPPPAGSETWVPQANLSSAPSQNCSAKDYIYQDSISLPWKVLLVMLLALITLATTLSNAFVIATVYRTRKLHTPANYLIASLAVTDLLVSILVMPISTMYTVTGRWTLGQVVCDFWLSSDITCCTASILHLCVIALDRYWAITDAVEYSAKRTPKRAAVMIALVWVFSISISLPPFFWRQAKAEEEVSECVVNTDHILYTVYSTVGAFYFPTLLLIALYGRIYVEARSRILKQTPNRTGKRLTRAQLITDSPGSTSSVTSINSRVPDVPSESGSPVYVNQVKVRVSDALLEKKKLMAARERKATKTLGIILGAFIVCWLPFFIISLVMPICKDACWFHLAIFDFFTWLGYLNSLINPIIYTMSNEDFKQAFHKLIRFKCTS
T2 sequence (P28221 whole entry): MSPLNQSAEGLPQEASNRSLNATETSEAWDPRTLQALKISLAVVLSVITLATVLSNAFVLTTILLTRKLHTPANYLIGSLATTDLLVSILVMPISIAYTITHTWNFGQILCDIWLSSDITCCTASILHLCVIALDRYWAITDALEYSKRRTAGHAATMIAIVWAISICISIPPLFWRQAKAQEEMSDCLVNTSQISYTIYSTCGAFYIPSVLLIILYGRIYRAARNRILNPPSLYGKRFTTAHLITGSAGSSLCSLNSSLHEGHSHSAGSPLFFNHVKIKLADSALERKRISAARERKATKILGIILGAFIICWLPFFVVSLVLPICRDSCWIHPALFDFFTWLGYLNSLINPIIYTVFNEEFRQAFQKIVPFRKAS
Sequence of Sodium-dependent serotonin transporter (Rattus norvegicus, UniProt P31652) (P31652 whole entry): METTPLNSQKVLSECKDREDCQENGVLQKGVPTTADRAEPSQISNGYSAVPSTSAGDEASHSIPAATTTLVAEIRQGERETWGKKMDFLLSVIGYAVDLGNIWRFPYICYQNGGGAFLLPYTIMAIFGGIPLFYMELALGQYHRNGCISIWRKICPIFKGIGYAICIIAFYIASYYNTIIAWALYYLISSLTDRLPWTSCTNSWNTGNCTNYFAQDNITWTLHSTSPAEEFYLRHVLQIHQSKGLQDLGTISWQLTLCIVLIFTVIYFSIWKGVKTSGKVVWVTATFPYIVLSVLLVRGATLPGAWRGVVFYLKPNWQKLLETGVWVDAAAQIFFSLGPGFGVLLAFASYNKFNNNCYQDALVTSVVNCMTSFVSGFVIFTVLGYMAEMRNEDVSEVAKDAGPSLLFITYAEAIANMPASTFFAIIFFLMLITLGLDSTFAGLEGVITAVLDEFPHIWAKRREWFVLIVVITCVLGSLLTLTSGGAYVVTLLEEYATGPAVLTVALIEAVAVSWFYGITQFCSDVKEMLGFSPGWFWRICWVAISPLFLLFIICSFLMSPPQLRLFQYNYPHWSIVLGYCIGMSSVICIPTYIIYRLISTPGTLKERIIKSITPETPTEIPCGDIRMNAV
Sequence of 5-hydroxytryptamine receptor 2B (P41595 whole entry): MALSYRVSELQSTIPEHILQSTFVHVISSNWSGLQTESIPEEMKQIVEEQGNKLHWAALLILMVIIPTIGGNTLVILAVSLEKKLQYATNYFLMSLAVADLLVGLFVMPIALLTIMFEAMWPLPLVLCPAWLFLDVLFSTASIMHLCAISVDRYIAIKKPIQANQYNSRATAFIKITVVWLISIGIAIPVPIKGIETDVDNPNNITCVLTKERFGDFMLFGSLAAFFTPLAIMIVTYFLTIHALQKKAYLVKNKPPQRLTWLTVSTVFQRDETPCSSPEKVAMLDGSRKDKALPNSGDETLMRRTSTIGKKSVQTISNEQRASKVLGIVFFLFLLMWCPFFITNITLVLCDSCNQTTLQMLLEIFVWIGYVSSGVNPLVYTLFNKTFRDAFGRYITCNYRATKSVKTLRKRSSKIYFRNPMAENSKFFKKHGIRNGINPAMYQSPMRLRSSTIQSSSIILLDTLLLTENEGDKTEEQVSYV
Sequence of Beta-2 adrenergic receptor (P07550 whole entry): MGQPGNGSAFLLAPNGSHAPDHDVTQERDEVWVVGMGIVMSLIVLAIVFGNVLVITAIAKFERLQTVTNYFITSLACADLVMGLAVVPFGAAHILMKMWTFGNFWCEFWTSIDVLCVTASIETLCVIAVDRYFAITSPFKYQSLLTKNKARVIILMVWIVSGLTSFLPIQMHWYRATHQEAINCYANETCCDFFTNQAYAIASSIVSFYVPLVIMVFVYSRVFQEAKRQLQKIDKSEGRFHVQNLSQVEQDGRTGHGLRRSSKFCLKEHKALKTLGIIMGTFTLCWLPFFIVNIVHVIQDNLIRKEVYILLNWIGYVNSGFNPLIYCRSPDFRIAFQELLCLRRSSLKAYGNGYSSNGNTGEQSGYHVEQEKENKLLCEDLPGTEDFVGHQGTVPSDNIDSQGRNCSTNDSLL
Sequence of Sodium-dependent serotonin transporter (Homo sapiens, UniProt P31645) (P31645 whole entry): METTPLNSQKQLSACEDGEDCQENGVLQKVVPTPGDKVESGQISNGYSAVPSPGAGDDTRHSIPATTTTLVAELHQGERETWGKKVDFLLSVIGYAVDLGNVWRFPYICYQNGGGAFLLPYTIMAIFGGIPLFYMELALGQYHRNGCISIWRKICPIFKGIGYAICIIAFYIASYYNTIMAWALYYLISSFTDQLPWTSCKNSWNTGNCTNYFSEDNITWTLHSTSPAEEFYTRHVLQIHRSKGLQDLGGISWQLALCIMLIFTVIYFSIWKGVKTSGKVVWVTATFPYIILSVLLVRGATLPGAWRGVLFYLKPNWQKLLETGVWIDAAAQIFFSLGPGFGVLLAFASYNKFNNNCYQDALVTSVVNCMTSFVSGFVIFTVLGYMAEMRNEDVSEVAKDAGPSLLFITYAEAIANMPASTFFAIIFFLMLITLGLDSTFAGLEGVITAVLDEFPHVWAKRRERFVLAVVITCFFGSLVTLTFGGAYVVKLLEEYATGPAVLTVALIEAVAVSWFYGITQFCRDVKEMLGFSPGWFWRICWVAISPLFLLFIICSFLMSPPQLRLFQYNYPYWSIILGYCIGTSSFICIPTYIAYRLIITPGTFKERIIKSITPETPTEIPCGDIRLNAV
Sequence of 5-hydroxytryptamine receptor 5A (P47898 whole entry): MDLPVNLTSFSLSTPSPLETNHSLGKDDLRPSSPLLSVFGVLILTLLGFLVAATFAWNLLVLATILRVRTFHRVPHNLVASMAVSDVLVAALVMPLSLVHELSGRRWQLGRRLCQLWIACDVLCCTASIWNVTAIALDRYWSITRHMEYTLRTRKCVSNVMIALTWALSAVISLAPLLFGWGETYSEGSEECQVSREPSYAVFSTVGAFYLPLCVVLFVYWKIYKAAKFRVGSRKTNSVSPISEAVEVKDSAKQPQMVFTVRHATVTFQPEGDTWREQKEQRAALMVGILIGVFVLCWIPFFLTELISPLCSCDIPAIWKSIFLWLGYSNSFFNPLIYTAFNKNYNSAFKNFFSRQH
Sequence of D(2) dopamine receptor (P14416 whole entry): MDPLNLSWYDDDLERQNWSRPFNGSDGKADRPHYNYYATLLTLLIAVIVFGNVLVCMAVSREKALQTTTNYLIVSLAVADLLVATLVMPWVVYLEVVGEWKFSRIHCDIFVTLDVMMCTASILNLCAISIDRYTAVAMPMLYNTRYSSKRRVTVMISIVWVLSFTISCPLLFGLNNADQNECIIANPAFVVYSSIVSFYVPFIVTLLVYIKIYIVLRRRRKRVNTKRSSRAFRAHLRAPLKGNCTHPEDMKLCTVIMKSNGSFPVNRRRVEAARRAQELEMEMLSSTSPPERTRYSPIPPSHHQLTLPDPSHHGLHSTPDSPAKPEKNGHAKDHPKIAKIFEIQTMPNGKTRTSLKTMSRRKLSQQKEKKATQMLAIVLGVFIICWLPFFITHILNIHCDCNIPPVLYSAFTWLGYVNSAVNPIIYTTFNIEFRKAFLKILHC
Sequence of 5-hydroxytryptamine receptor 2A (P28223 whole entry): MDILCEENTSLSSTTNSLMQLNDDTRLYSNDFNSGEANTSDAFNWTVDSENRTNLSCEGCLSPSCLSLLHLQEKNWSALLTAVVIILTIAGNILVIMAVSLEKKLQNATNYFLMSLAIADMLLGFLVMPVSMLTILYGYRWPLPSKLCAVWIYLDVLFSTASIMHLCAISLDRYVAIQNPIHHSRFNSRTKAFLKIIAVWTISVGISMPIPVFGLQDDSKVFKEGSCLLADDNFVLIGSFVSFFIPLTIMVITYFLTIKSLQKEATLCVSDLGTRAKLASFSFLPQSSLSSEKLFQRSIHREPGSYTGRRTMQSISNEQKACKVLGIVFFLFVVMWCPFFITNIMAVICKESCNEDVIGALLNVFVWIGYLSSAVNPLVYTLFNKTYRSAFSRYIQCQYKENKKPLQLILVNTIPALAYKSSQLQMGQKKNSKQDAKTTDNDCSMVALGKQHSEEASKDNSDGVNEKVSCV
Sequence of 5-hydroxytryptamine receptor 7 (P34969 whole entry): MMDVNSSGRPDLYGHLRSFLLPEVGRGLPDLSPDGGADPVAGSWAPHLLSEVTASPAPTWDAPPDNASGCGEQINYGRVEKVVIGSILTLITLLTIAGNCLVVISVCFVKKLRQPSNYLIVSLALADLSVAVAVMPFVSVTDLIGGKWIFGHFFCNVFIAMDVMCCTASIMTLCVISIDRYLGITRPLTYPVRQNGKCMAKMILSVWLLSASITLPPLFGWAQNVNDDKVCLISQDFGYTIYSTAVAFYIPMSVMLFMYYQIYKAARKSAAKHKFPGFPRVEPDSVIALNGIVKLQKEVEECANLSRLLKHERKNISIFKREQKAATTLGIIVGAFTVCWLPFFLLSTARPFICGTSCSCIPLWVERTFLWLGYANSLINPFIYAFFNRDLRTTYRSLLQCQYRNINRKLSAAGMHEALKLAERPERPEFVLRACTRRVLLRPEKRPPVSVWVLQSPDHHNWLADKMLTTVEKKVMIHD

| Structure (SMILES) | clearance [1] | half-life [2] | Vd [3] | Cmax [4] | Intrinsic activity [5] | Intrinsic activity [6] | Ki [7] | Ki [8] | Ki [9] | Ki [10] | other results |
| --- | --- | --- | --- | --- | --- | --- | --- | --- | --- | --- | --- |
| CCN(C(C)=O)c1cccc(CC2CCN(CCOc3cccc4nc(C)ccc34)CC2)c1 | 34 mL/min/kg | 66 min | 1.9 L/kg | 234 ng/g | 0.3 | 0.6 | 5.01 nM | 100 nM | 1.58 nM | 794 nM |  |
| Cc1ccc2c(OCCN3CCC(Cc4cccc(NS(C)(=O)=O)c4)CC3)cccc2n1 | 38 mL/min/kg | 36 min | 1.6 L/kg | 346 ng/g | 0.3 |  | 2.51 nM | 2 nM | 0.501 nM | 1000 nM | Kp [11]: 0.2; Activity (Rattus norvegicus): Dose-dependent effect; Ki [12]: 2510 nM; Ki [13]: 501 nM; Ki [14]: 2510 nM; Ki [15]: 2000 nM; Ki [16]: > 1000 nM; Ki [17]: > 10000 nM; Ki [18]: > 10000 nM; Ki [19]: 20 nM; Ki [20]: 1580 nM; Ki [21]: 200 nM; Ki [22]: 501 nM; Ki [23]: 1260 nM; Ki (D(2) dopamine receptor): 63.1 nM |
| Cc1ccc2c(OCCN3CCC(Cc4cccc(NC(=O)C(C)C)c4)CC3)cccc2n1 | 45 mL/min/kg | 54 min | 1.8 L/kg | 175 ng/g | 0.3 | 0.4 | 6.31 nM | 50.1 nM | 1.26 nM | 501 nM | Kp [11]: 2.3 |
| CCC(=O)Nc1cccc(CC2CCN(CCOc3cccc4nc(C)ccc34)CC2)c1 |  |  |  |  | 0.3 | 0.3 | 25.1 nM | 15.8 nM | 0.631 nM | 794 nM |  |
| CC(=O)Nc1ccccc1CN1CCN(CCOc2cccc3nc(C)ccc23)CC1 |  |  |  |  |  |  | 1260 nM | 1580 nM | 5.01 nM | 10000 nM |  |
| Cc1nc(-c2ccc(-c3ccc(C(=O)N4CCc5cc6c(cc54)C4(CCN(C)CC4)CO6)cc3)c(C)c2)no1 [SB-224289] |  |  |  |  |  |  |  |  |  |  | ED50 (Rattus norvegicus; po): 1 mg/kg |
| CCNC(=O)Nc1cccc(CC2CCN(CCOc3cccc4nc(C)ccc34)CC2)c1 |  |  |  |  | 0.2 | 0.3 | 31.6 nM | 25.1 nM | 0.251 nM | 251 nM |  |
| CC(=O)N(C)c1cccc(CN2CCN(CCOc3cccc4nc(C)ccc34)CC2)c1 |  |  |  |  |  |  | 251 nM | 50.1 nM | 0.316 nM | 1000 nM |  |
| Cc1ccc2c(OCCN3CCC(Cc4cccc(NC(=O)CN(C)C)c4)CC3)cccc2n1 |  |  |  |  | 0.2 | 0.4 | 15.8 nM | 6.31 nM | 1 nM | 398 nM |  |
| COc1cccc(CN2CCN(CCOc3cccc4nc(C)ccc34)CC2)c1 |  |  |  |  |  |  |  | 158 nM | 2.51 nM | 631 nM | Ki [24]: 12.6 nM |
| COc1ccc(CC2CCN(CCOc3cccc4nc(C)ccc34)CC2)cc1NS(C)(=O)=O |  |  |  |  |  |  | 126 nM | 39.8 nM | 6.31 nM | 631 nM |  |
| Cc1ccc2c(OCCN3CCN(Cc4ccccc4)CC3)cccc2n1 |  |  |  |  |  |  | 200 nM | 251 nM | 1 nM | 794 nM | Ki [24]: 25.1 nM |
| COc1ccc(CN2CCN(CCOc3cccc4nc(C)ccc34)CC2)cc1 |  |  |  |  |  |  | 50.1 nM | 501 nM | 12.6 nM | 398 nM | Ki [24]: 5.01 nM |
| CC(=O)N(C)c1cccc(CC2CCN(CCOc3cccc4nc(C)ccc34)CC2)c1 | 37 mL/min/kg | 72 min | 2.2 L/kg | 190 ng/g | 0.3 | 0.6 | 25.1 nM | 39.8 nM | 1.26 nM | 79.4 nM |  |
| Cc1ccc2c(OCCN3CCC(Cc4cccc(NS(=O)(=O)C(C)C)c4)CC3)cccc2n1 |  |  |  |  | 0.3 | 0.4 | 2.51 nM | 1.26 nM | 0.398 nM | 398 nM |  |
| Cc1ccc2c(OCCN3CCC(Cc4cccc(N5CCCC5=O)c4)CC3)cccc2n1 | 35 mL/min/kg | 78 min | 1.5 L/kg | 410 ng/g | 0.4 | 0.5 | 6.31 nM | 20 nM | 2 nM | 200 nM | Kp [11]: 1.2 |
| Cc1ccc2c(OCCN3CCC(Cc4cccc(N(C)S(C)(=O)=O)c4)CC3)cccc2n1 |  |  |  |  | 0 | 0.5 | 12.6 nM | 12.6 nM | 1.58 nM | 1000 nM |  |
| CC(=O)Nc1cccc(CC2CCN(CCOc3cccc4nc(C)ccc34)CC2)c1 | 47 mL/min/kg | 36 min | 1.2 L/kg | 221 ng/g | 0.3 | 0.5 | 25.1 nM | 20 nM | 0.501 nM | 501 nM | Kp [11]: 1.1 |
| CC(=O)Nc1ccc(CN2CCN(CCOc3cccc4nc(C)ccc34)CC2)cc1 |  |  |  |  |  |  |  | 1260 nM | 200 nM | 1580 nM | Ki [24]: 158 nM |
| CC(=O)Nc1cccc(CN2CCN(CCOc3cccc4nc(C)ccc34)CC2)c1 |  |  |  |  |  |  | 200 nM | 20 nM | 0.501 nM | 1260 nM | Ki [24]: 2 nM |
| Cc1ccc2c(OCCN3CCC(Cc4cccc(N5CCCS5(=O)=O)c4)CC3)cccc2n1 | 39 mL/min/kg | 54 min | 0.9 L/kg | 287 ng/g | 0.5 | 0.4 | 7.94 nM | 12.6 nM | 1.58 nM | 794 nM | Kp [11]: 0.9; Ki [12]: > 10000 nM; Ki [13]: 1000 nM; Ki [14]: > 6310 nM; Ki [15]: > 1000 nM; Ki [16]: > 3980 nM; Ki [17]: 7940 nM; Ki [18]: 1580 nM; Ki [19]: 15.8 nM; Ki [20]: 398 nM; Ki [21]: 158 nM; Ki [22]: 1580 nM; Ki [23]: 1580 nM; Ki (D(2) dopamine receptor): 501 nM |
